This note sets out measurements from patent publication US9290745B2, “Luciferase biosensor” (PROMEGA CORPORATION, priority 2003, dated 2016).

The target of this test is T1, Luc2-CaM fusion (UniProt P08659+P0DP23, D3I/E2D/N119G/N50D).
T1 construct: made in house; host or cells: cell-free: TnT Coupled Reticulocyte Lysate System
Description: C-terminal modulated luciferase fusion system (calmodulin). The class given is biochemical, human.

Regarding `[Ca+2].[Cl-].[Cl-]` [Ca^+2, CaCl2], under “1 μl 100 mM CaCl2 added after EGTA”, the “effect on EGTA-induced increase in luminescence” value was “can be reversed”.

Take `O=C(O)CN(CCOCCOCCN(CC(=O)O)CC(=O)O)CC(=O)O` [EGTA]: the increase of luminescence result (EGTA final concentration 3 mM, Luc2-CaM TnT lysate in LAR) is given as “about 9 fold”.
